# Measured values published in patent US20240041899A1, “SOLID PREPARATION” (ASKA Pharmaceutical Co., Ltd., priority 2020, published 2024).
# Key:
# [1] = system: rats having the urination disorder associated with diabetes; experiment: Test Example 4: urination disorder model associated with streptozocin-induced diabetes (tissue weights, blood glucose, cystometry, nomogram); format: in vivo; settings: for Bladder weight / Blood glucose level / Kidney weight / Prostate weight, dorsolateral prostate / Prostate weight, ventral prostate / Prostate weight, whole / Seminal vesicle weight: 4 weeks; for Bladder weight / Blood glucose level / Kidney weight / Prostate weight, dorsolateral prostate / Prostate weight, ventral prostate / Prostate weight, whole / Seminal vesicle weight / Body weight: average ± SD; for Dorsolateral prostate atrophy rate / Seminal vesicle atrophy rate / Ventral prostate atrophy rate / Whole prostate atrophy rate: relative to solvent group; for Body weight: model with induced diabetes (STZ), male rats
# Protocol: As described below, as a urination disorder model, a urination disorder model associated with diabetes was prepared to evaluate the urination disorder. This model has no benign prostatic hyperplasia and is a model of a urination disorder associated with neuropathy and smooth muscle contraction disorder.
# The body weights of rats (male, Crl:CD(SD), 5-week-old; Charles River Laboratories Japan, Inc.) were measured. After the rats were fasted overnight, the blood was collected from the caudal vein to measure the fasting blood glucose. On the basis of the body weight and the fasting blood glucose level, the rats were grouped or divided into two (2) groups by randomized, multivariable block allocation. The day after the rats were grouped, a first group received intraperitoneal administration of a citrate buffer (pH 4.5) (10 mL/kg) having a concentration of 0.1 mmol/L, and a second group received intraperitoneal administration of streptozocin (STZ; Sigma-Aldrich) (50 mg/kg). Streptozocin (STZ) was administered in the form of a solution of streptozocin having a concentration of 5 mg/mL in the citrate buffer.
# About one (1) week after streptozocin (STZ) was administered, the body weight and the fasting blood glucose were measured. In the streptozocin (STZ) administration group (the second group), individuals having a fasting blood glucose level of not less than 300 mg/dL were used as animals with induced diabetes. These animals with induced diabetes are a model having no abnormality of the prostate (having no benign prostatic hyperplasia). On the basis of the body weight and the fasting blood glucose level, the animals (models) with induced diabetes were grouped or divided into three (3) groups by randomized, multivariable block allocation.
# To the three model groups with induced diabetes, a 0.5 v/v % Polysorbate 80 solution (0.5% P) (10 mL/kg), the compound A (3 mg/kg), and the compound A (10 mg/kg) were orally administered, respectively, wherein the administration schedule in all groups was a frequency of once a day, only on weekdays, over four (4) weeks. Moreover, to the above-mentioned first group, a 0.5 v/v % Polysorbate 80 solution (0.5% P) (10 mL/kg) was orally administered in the same administration schedule (normal group). On the last day of administration, a cannula was inserted into and secured to the dome of the bladder under isoflurane anesthesia, and cystometry (Cystometogram, CMG) was conducted in the order of under awake condition and under urethane anesthesia to measure the intravesical pressure, the voided volume, and the residual urine volume. After the completion of the measurement, the blood was collected under deep isoflurane anesthesia, and then the prostate (ventral prostate, dorsolateral prostate), the seminal vesicle, the bladder, and the kidney were extracted and were each weighed. Moreover, the blood glucose level in the collected blood was measured.
# The test substances and the dosage in the test system (rats having the urination disorder associated with diabetes) are as follows. • Normal group: citrate buffer 10 mL/kg (intraperitoneal administration), 0.5% P 10 mL/kg (oral administration) (n=10) • Solvent group (control group): STZ 50 mg/kg (intraperitoneal administration), 0.5% P 10 mL/kg (oral administration) (n=10) • Group A3: STZ 50 mg/kg (intraperitoneal administration), Compound A 3 mg/kg (oral administration) (n=10) • Group A10: STZ 50 mg/kg (intraperitoneal administration), Compound A 10 mg/kg (oral administration) (n=9)
# The resulting data of the intravesical pressure, the voided volume, and the residual urine volume were analyzed, and the bladder capacity (mL), the residual urine volume […], and the urination efficiency (%) were determined as urination parameters in each urination. With respect to these urination parameters, the average value of two measurements was calculated and was taken as a measured value of each individual. […]
# [2] = system: bladder specimen of high-week-old male rats; experiment: Test Example 3: isometric contraction test of bladder specimen from high-week-old male rats after oral dosing; format: in vivo; settings: 22-week-old male rats, oral once a day 2 weeks, 10 mg/kg, compared with Group C (dutasteride 0.3 mg/kg)
# From the text: High-week-old male rats (22-week-old; Charles River Laboratories Japan, Inc.) were examined and evaluated for the relationship between the test substances and the bladder and urethra contraction reaction. Since the rats are high-week-old, the rats are a model in which the prostate is predicted to be enlarged.
# A test substance was orally administered to the high-week-old male rats repeatedly at a frequency of once a day over two (2) weeks, and then, from each rat, a bladder specimen was extracted. The bladder specimen was suspended at a resting tension of about 9.8 mN in a constant-temperature Magnus tube (37° C.) filled with a physiological salt solution aerated with 95% 02-5% CO2 gas and was subjected to an isometric contraction test by applying a square-wave electrical field stimulation (EFS, Amplitude; 0.3 ms, Frequency; 1, 2, 5, 10, 20 Hz, Duration; 5 s); or Carbachol (CCH, 100 nmol/L to 100 μmol/L) and KCl (40, 80 mmol/L).
# Solvent group (control group): 0.5 v/v % Polysorbate 80 solution, 10 mL/kg (n=6) • Group A: Compound A, 10 mg/kg (n=6) • Group C: Compound C (dutasteride), 0.3 mg/kg (n=6)
# [3] = STZ diabetes model, 3 mg/kg, vs solvent group
# [4] = STZ diabetes model, 10 mg/kg, vs solvent group
# [5] = STZ diabetes model, Group A3 and Group A10 (3 and 10 mg/kg)
# [6] = STZ diabetes model, oral 3 mg/kg
# [7] = STZ diabetes model, oral 10 mg/kg
smiles,measurement,setting,value
"CC(=O)O[C@]1(C(C)=O)C[C@@H](O)[C@H]2[C@@H]3C=C(Cl)C4=CC(=O)OC[C@]4(C)[C@H]3CC[C@@]21C [Compound A, 17α-acetoxy-6-chloro-15β-hydroxy-2-oxa-4,6-pregnadiene-3,20-dione]","bladder capacity, cystometry (CMG) under awake condition",[1]; [3],significantly reduced
same,"residual urine volume, cystometry (CMG) under anesthesia",[1]; [3],significantly decreased
same,"residual urine volume, cystometry (CMG) under awake condition",[1]; [3],significantly reduced
same,"urination efficiency, cystometry (CMG) under awake condition",[1]; [3],improved
same,"bladder capacity, cystometry (CMG) under awake condition",[1]; [4],significantly reduced
same,"residual urine volume, cystometry (CMG) under anesthesia",[1]; [4],significantly decreased
same,"residual urine volume, cystometry (CMG) under awake condition",[1]; [4],significantly reduced
same,"bladder capacity, cystometry (CMG) under anesthesia","[1]; STZ diabetes model, 10 mg/kg, vs solvent group (P=0.0336, Williams's multiple comparison test)",reduced
same,"urination efficiency, cystometry (CMG) under awake condition","[1]; STZ diabetes model, 10 mg/kg, vs solvent group (P=0.0359, Williams's multiple comparison test)",significantly improved
same,"action on the body weight, the blood glucose level, or the bladder and kidney weights",[1]; [5],no action or influence
same,"urination efficiency, cystometry (CMG) under anesthesia",[1]; [5],improved
same,bladder contraction force on urination by nomogram analysis,"[1]; STZ diabetes model, Group A3 and Group A10 (3 and 10 mg/kg), in comparison with the solvent group",strong bladder contraction force
same,prostate and seminal vesicle weights,"[1]; STZ diabetes model, Group A3 and Group A10 (3 and 10 mg/kg), vs solvent group",significantly decreased
same,therapeutic effect on diabetes,"[1]; STZ diabetes model, blood glucose level of Group A3 and Group A10 relative to the solvent group",no therapeutic effect
same,Bladder weight,[1]; [6],79.3 ± 17.5 mg/100 g body weight
same,Blood glucose level,[1]; [6],912.8 ± 177.3 mg/dL
same,Kidney weight,[1]; [6],1114.9 ± 189.2 mg/100 g body weight
same,"Prostate weight, dorsolateral prostate",[1]; [6],35.3 ± 7.8 mg/100 g body weight
same,"Prostate weight, ventral prostate",[1]; [6],62.2 ± 11.4 mg/100 g body weight
same,"Prostate weight, whole",[1]; [6],97.5 ± 17.7 mg/100 g body weight
same,Seminal vesicle weight,[1]; [6],44.3 ± 9.6 mg/100 g body weight
same,Dorsolateral prostate atrophy rate,[1]; [6],(44.2%)
same,Seminal vesicle atrophy rate,[1]; [6],(41.8%)
same,Ventral prostate atrophy rate,[1]; [6],(43.0%)
same,Whole prostate atrophy rate,[1]; [6],(43.4%)
same,Bladder weight,[1]; [7],72.9 ± 11.6 mg/100 g body weight
same,Blood glucose level,[1]; [7],846.7 ± 342.5 mg/dL
same,Kidney weight,[1]; [7],1171.0 ± 213.3 mg/100 g body weight
same,"Prostate weight, dorsolateral prostate",[1]; [7],28.8 ± 6.1 mg/100 g body weight
same,"Prostate weight, ventral prostate",[1]; [7],53.1 ± 13.5 mg/100 g body weight
same,"Prostate weight, whole",[1]; [7],81.9 ± 19.0 mg/100 g body weight
same,Seminal vesicle weight,[1]; [7],37.9 ± 6.4 mg/100 g body weight
same,Dorsolateral prostate atrophy rate,[1]; [7],(54.5%)
same,Seminal vesicle atrophy rate,[1]; [7],(50.2%)
same,Ventral prostate atrophy rate,[1]; [7],(51.3%)
same,Whole prostate atrophy rate,[1]; [7],(52.5%)
same,Body weight,[1]; oral 3 mg/kg once a day on weekdays 4 weeks,327.5 ± 51.3 g
same,Body weight,[1]; oral 10 mg/kg once a day on weekdays 4 weeks,356.4 ± 80.9 g
same,bladder contraction tension caused by square-wave electrical field stimulation or Carbachol and KCl,[2],significantly strong or has a strong directionality
